Consider two compounds from patent US20040248825A1, “Use of neuraminidase inhibitors to prevent flu associated bacterial infections” (St. Jude Children's Research Hospital, priority 2001, published 2004).

“Also recorded” adds a separate entry of the source. Like-named read-outs stand apart in the source and are kept apart here.

Data set [1] has as its system influenza A/PR/8/34 (H1N1) followed by S. pneumoniae D39. The data set is described as follows: Chemoprophylaxis study: mice infected with influenza virus on day 0, oseltamivir begun 4 hours before infection, pneumococcal challenge on day 7. It counts as in vivo, Balb/cByJ mice. The following applies: for Weight Loss (% of Baseline) / Mean viral lung titer: prophylaxis study.

The test system is the same in data set [2]. The data set can be described thus: Treatment study: sequential dual infection, oseltamivir begun 48 hours after influenza infection, pneumococcal challenge on day 7. The following applies: for Survival (Mantel-Cox Chi-Squared test on Kaplan-Meier survival data): oseltamivir 10 mg/kg/day BID begun 48 h after influenza, until D39 challenge on day 7, p<0.01 vs water control; for Mean viral lung titer / Weight Loss (% of Baseline) / Mean bacterial lung titer: treatment study; for Mean bacterial lung titer: day 8, 24 hours after pneumococcal challenge. It counts as in vivo, Balb/cByJ mice.

The conditions of data set [3]: cited from earlier work.

With `CCOC(=O)C1=C[C@@H](OC(CC)CC)[C@H](NC(C)=O)[C@@H](N)C1` [oseltamivir, oseltamivir phosphate], the “Survival (Mantel-Cox Chi-Squared test on Kaplan-Meier survival data)” value is listed as “significantly prolonged; also recorded: prolongs survival” in data set [1] (oseltamivir 10 mg/kg/day BID for 5 days from 4 h before influenza, 100 TCID50 PR8 day 0, 100 CFU D39 day 7, p<0.005 vs water control); “significantly prolonged” in data set [2]; “prolongs survival” in data set [2] (listed as Oseltamivir). The Median survival in data set [1] (prophylaxis group, after pneumococcal challenge, control <1 day) was 7 days; in data set [2] (oseltamivir group of the treatment study, control 1 day) it was 5 days. Also, the “Survival (number survived/total)” value is reported as 5/10 in data set [1] (prophylaxis group, followed 21 days, control 0/10) and 3/10 in data set [2] (treatment group, control 0/9). Moreover, the “Weight lost by surviving mice, % of their day 7 weight” value in data set [1] (prophylaxis group, in 48 hours after pneumococcal challenge, control 9.5%) is 7.5%; in data set [2] (treatment group, in 48 hours after pneumococcal challenge, control 5%), 4%. Further, the “Weight Loss (% of Baseline)” value in data set [1] (day 3) was 4.0 % of Baseline; in data set [1] (day 7), 9 % of Baseline; in data set [1] (day 7, listed as Oseltamivir) it was 8.7 % of Baseline; in data set [2] (day 3), 7.6 % of Baseline; in data set [2] (day 7), 23 % of Baseline. In addition, the “Mean viral lung titer” value was determined as 4.3 log10 in data set [1] (day 3, log10/ml TCID50 in MDCK cells); 4.32 log10 in data set [1] (day 3, log10/ml TCID50 in MDCK cells, listed as Oseltamivir); 3.84 log10 in data set [1] (day 7, before pneumococcal challenge, log10/ml TCID50); 6.8 log10 in data set [2] (day 3); 6.84 log10 in data set [2] (day 3, listed as Oseltamivir); 5.4 log10 in data set [2] (day 7). Besides, the “Mean viral lung titer” value in data set [2] (day 7, listed as Oseltamivir) is reported as 5.42 log10. For the same compound, the Lung histopathology result in data set [2] (lung tissue on day 8, untreated controls: diffuse, severe infection disseminated throughout both lungs) was “lobar bronchopneumonia infection that is confined to defined regions of the lungs”. Also, the figures for the “Mean bacterial lung titer” value in data set [2] and in data set [2] (listed as Oseltamivir) were 7.1 log10 CFU/ml and 7.08 log10 CFU/ml, respectively. The Half-life in data set [3] (oral) is 6 to 10 h. Besides, in data set [3] (oral), the Systemic bioavailability is given as 80%.
With `CC(=O)N[C@H]1[C@H]([C@H](O)[C@H](O)CO)OC(C(=O)O)=C[C@@H]1N=C(N)N` [Zanamivir, zanamivir], in data set [3] (dry powder for inhalation), the “Fraction of inhaled drug that reaches the lungs” value is “approx. 20%”. In data set [3] (in vivo), the Gastrointestinal absorption entry is recorded as “poorly absorbed” and the Half-life is 2.5 to 5 h.
